Where “and” joins values, the source holds several entries; their conditions need not be identical. Equal entries are not always repeated. Where a SMILES comes first, the peptide text is derived from it. [ ]: non-standard residue; d: D form. Hyp = O=C(O)[C@@H]1C[C@@H](O)CN1
Tested on: IFN-gamma
Experiment: Example 9 Luminex, LPS hPBMCs: IFN-gamma
Type: cell-based, human
Method: Treatment Human PBMCs were pretreated with YY-101, YDE-011 and YDE-043 or reference compound; Xiidra® at various concentration (ranging from 1 nM to 100 uM) for 2 h before stimulation. An equal volume of 0.5% DMSO was used as a vehicle control. Then, the cells were treated with LPS at 5 ug/ml. The supernatants from treated cells were harvested at 24 h and placed in a 96 well for Luminex cytokine & chemokine profiling using a Luminex 200 multiplex assay (Luminex; R&D system, USA).
The main study arm with triplicate wells per group in a 24-well plate: • 1. Blank • 2. PBMC: 0.5% DMSO • 3. PBMC+LPS (5 ug/ml) • 4. PBMC+YY-101 100 uM • 5. PBMC+YY-101 10 uM • 6. PBMC+YY-101 1 uM • 7. PBMC+YY-101 0.1 uM • 8. PBMC+YY-101 0.01 uM • 9. PBMC+LPS (5 ug/ml)+Xiidra®100 uM • 10. PBMC+LPS (5 ug/ml)+Xiidra® 10 uM • 11. PBMC+LPS (5 ug/ml)+Xiidra® 1 uM • 12. PBMC+LPS (5 ug/ml)+Xiidra®0.1 uM • 13. PBMC+LPS (5 ug/ml)+Xiidra®0.01 uM • 14. PBMC+LPS (5 ug/ml)+Xiidra®0.001 uM • 15. PBMC+LPS (5 ug/ml)+YY-101 100 uM • 16. PBMC+LPS (5 ug/ml)+YY-101 10 uM • 17. PBMC+LPS (5 ug/ml)+YY-101 1 uM • 18. PBMC+LPS (5 ug/ml)+YY-101 0.1 uM • 19. PBMC+LPS (5 ug/ml)+YY-101 0.01 uM • 20. PBMC+LPS (5 ug/ml)+YY-101 0.001 uM • 21. PBMC+LPS (5 ug/ml)+YDE-011 100 uM • 22. PBMC+LPS (5 ug/ml)+YDE-011 10 uM • 23. PBMC+LPS (5 ug/ml)+YDE-011 1 uM • 24. PBMC+LPS (5 ug/ml)+YDE-011 0.1 uM • 25. PBMC+LPS (5 ug/ml)+YDE-011 0.01 uM • 26. PBMC+LPS (5 ug/ml)+YDE-011 0.001 uM • 27. PBMC+LPS (5 ug/ml)+YDE-043 100 uM • 28. PBMC+LPS (5 ug/ml)+YDE-043 10 uM • 29. PBMC+LPS (5 ug/ml)+YDE-043 1 uM • 30. PBMC+LPS (5 ug/ml)+YDE-043 0.1 uM • 31. PBMC+LPS (5 ug/ml)+YDE-043 0.01 uM • 32. PBMC+LPS (5 ug/ml)+YDE-043 0.001 uM
Multiplex assay was used to measure 30 cytokines and chemokines. The 1:2, 1:10 and 1:200 diluted cell supernatant and serial dilution of the standard were dispensed into a 96 well plate at 50 ul/well. Then, the pre-mixed cocktail of antibody-coated magnetic beads was dispensed at 50 ul/well and incubated at room temperature for 2 h in a horizontal orbital microplate shaker at 800±500 rpm. The beads were washed using a magnetic device to prevent loss. The biotin-antibody was dispensed in 50 ul of each well and incubated at room temperature for 1 h in a shaker at 800±500 rpm. After washing, streptavidin-PE was added at 50 ul/well and incubated at room temperature for 30 min in a shaker under the same conditions. Finally, after washing, wash buffer (100 ul/well) was added to the plate and incubated in a shaker for 2 min. The Luminex™ 200 setting were set according to the manufacturer's protocol. The data was calculated with a standard five-parameter logistic nonlinear regression analysis of the data (xPonent software 4.2, USA). The levels of cytokine/chemokine are normalized to the live cell counts (1×10^5 cells/mL) and presented as concentrations per mL (pg/mL or ng/mL).

[1] = PBMC + LPS(5 ug/ml) + test article 0.001 uM, Mean
[2] = PBMC + LPS(5 ug/ml) + test article 0.001 uM, single replicates
[3] = PBMC + LPS(5 ug/ml) + test article 0.01 uM, Mean
[4] = PBMC + LPS(5 ug/ml) + test article 0.01 uM, single replicates
[5] = PBMC + LPS(5 ug/ml) + test article 0.1 uM, Mean
[6] = PBMC + LPS(5 ug/ml) + test article 0.1 uM, single replicates
[7] = PBMC + LPS(5 ug/ml) + test article 1 uM, Mean
[8] = PBMC + LPS(5 ug/ml) + test article 1 uM, single replicates
[9] = PBMC + LPS(5 ug/ml) + test article 10 uM, Mean
[10] = PBMC + LPS(5 ug/ml) + test article 10 uM, single replicates
[11] = PBMC + LPS(5 ug/ml) + test article 100 uM, Mean
[12] = PBMC + LPS(5 ug/ml) + test article 100 uM, single replicates
[13] = PBMC + test article 0.01 uM, no LPS, Mean
[14] = PBMC + test article 0.01 uM, no LPS, single replicates
[15] = PBMC + test article 0.1 uM, no LPS, Mean
[16] = PBMC + test article 0.1 uM, no LPS, single replicates
[17] = PBMC + test article 1 uM, no LPS, Mean
[18] = PBMC + test article 1 uM, no LPS, single replicates
[19] = PBMC + test article 10 uM, no LPS, Mean
[20] = PBMC + test article 10 uM, no LPS, single replicates
[21] = PBMC + test article 100 uM, no LPS, Mean
[22] = PBMC + test article 100 uM, no LPS, single replicates

CC(C)C[C@H](NC(=O)CNC(=O)[C@H](CC(=O)O)NC(=O)[C@H](CCC(N)=O)NC(=O)CNC(=O)[C@@H]1C[C@@H](O)CN1)C(=O)N[C@@H](C)C(=O)NCC(=O)N1CCC[C@H]1C(=O)N[C@@H](CCCCN)C(=O)O [YY-101] (H-[Hyp]GQDGLAGPK-OH; N-terminus and C-terminus assumed)
Concentration (IFN-gamma) [1]: 2439.1 pg/mL | conc/live cell (IFN-gamma) [1]: 378.6 pg/10^5 | Concentration (IFN-gamma) [2]: 2345.3 pg/mL and 2706.6 pg/mL and 2265.5 pg/mL | conc/live cell (IFN-gamma) [2]: 411.5 pg/10^5 and 381.2 pg/10^5 and 343.3 pg/10^5 | Concentration (IFN-gamma) [3]: 3133.1 pg/mL | conc/live cell (IFN-gamma) [3]: 507.8 pg/10^5 | Concentration (IFN-gamma) [4]: 3435.7 pg/mL and 3322.0 pg/mL and 2641.6 pg/mL | conc/live cell (IFN-gamma) [4]: 536.8 pg/10^5 and 553.7 pg/10^5 and 433.0 pg/10^5 | Concentration (IFN-gamma) [5]: 1841.4 pg/mL | conc/live cell (IFN-gamma) [5]: 313.6 pg/10^5 | Concentration (IFN-gamma) [6]: 2024.2 pg/mL and 1601.1 pg/mL and 1899.0 pg/mL | conc/live cell (IFN-gamma) [6]: 326.5 pg/10^5 and 307.9 pg/10^5 and 306.3 pg/10^5 | Concentration (IFN-gamma) [7]: 2318.4 pg/mL | conc/live cell (IFN-gamma) [7]: 355.2 pg/10^5 | Concentration (IFN-gamma) [8]: 2480.1 pg/mL and 2437.0 pg/mL and 2038.3 pg/mL | conc/live cell (IFN-gamma) [8]: 393.7 pg/10^5 and 343.2 pg/10^5 and 328.8 pg/10^5 | Concentration (IFN-gamma) [9]: 2654.7 pg/mL | conc/live cell (IFN-gamma) [9]: 406.4 pg/10^5 | Concentration (IFN-gamma) [10]: 3058.1 pg/mL and 2593.6 pg/mL and 2312.4 pg/mL | conc/live cell (IFN-gamma) [10]: 509.7 pg/10^5 and 405.2 pg/10^5 and 304.3 pg/10^5 | Concentration (IFN-gamma) [11]: 1939.0 pg/mL | conc/live cell (IFN-gamma) [11]: 333.7 pg/10^5 | Concentration (IFN-gamma) [12]: 1943.2 pg/mL and 2122.4 pg/mL and 1751.5 pg/mL | conc/live cell (IFN-gamma) [12]: 308.4 pg/10^5 and 342.3 pg/10^5 and 350.3 pg/10^5 | Concentration (IFN-gamma) [13]: 20.8 pg/mL | conc/live cell (IFN-gamma) [13]: 4.2 pg/10^5 | Concentration (IFN-gamma) [14]: 12.5 pg/mL and 29.1 pg/mL | conc/live cell (IFN-gamma) [14]: 2.4 pg/10^5 and 6.1 pg/10^5 | Concentration (IFN-gamma) [15]: 20.8 pg/mL | conc/live cell (IFN-gamma) [15]: 3.9 pg/10^5 | Concentration (IFN-gamma) [16]: 12.5 pg/mL and 29.1 pg/mL | conc/live cell (IFN-gamma) [16]: 2.8 pg/10^5 and 5.0 pg/10^5 | Concentration (IFN-gamma) [17]: 18.1 pg/mL | conc/live cell (IFN-gamma) [17]: 3.3 pg/10^5 | Concentration (IFN-gamma) [18]: 12.5 pg/mL and 23.7 pg/mL | conc/live cell (IFN-gamma) [18]: 2.3 pg/10^5 and 4.3 pg/10^5 | Concentration (IFN-gamma) [19]: 50.9 pg/mL | conc/live cell (IFN-gamma) [19]: 8.1 pg/10^5 | Concentration (IFN-gamma) [20]: 67.3 pg/mL and 34.4 pg/mL | conc/live cell (IFN-gamma) [20]: 10.5 pg/10^5 and 5.6 pg/10^5 | Concentration (IFN-gamma) [21]: 36.8 pg/mL | conc/live cell (IFN-gamma) [21]: 5.6 pg/10^5 | Concentration (IFN-gamma) [22]: 49.9 pg/mL and 23.7 pg/mL | conc/live cell (IFN-gamma) [22]: 7.8 pg/10^5 and 3.4 pg/10^5
